Assay results: patent US6147095A (priority 1999, dated 2000)
“Also recorded” adds a separate entry of the source. Where two headings read alike, the source gives them in different places. One block for each compound: values may come before it.

Key:
[1] = human, in vivo
Method: The drugs were then coadministered for 10 days, after which the pharmacokinetics of each were re-evaluated and compared with baseline data. The study was conducted in 14 healthy volunteers (13 males and 1 female) with a mean age of 29.9 years (range, 21.3-43.9 years), height of 174.4 cm (range, 162.6-185.4 cm), and weight of 76.5 kg (range, 65.1-88.2 kg). Twelve subjects were Caucasian and two were of African descent. Ten subjects completed all aspects of the study. Pharmacokinetic analyses were based on the results obtained in these subjects. […] Detection was by UV absorbance at 260 nm.

clinical [2] = conditions: human, in vivo, po, CLPO (oral clearance)
Method: (§1) Baseline pharmacokinetic data for each drug were obtained under pharmacokinetic steady-state conditions following 7 days of dosing. Each drug was then co-administered for 10 days, at which time the pharmacokinetics of each was re-evaluated and compared with baseline data. […] All subjects were Caucasian. […] Pharmacokinetic analyses were based on results obtained in these subjects.
Detection was by UV absorbance at 260 nm.
(§2) Treatment effects on pharmacokinetic parameters were assessed using Wilcoxon's Signed Rank Test.

CYP3A [3] = test: Enzyme induction; conditions: previous studies / in vitro and in vivo data
[4] = human, in vivo; remark: listed apart in the source
Method: A pharmacokinetic profile was obtained under steady-state conditions following 7 days of dosing. […] Forty-four subjects were Caucasian, 2 were Black, and 2 were Asian.
An aliquot (0.150 mL) was initially injected onto a short Zorbax® RX-C8 column which was connected via a column switching valve to the analytical column, Zorbax® RX-C8 column. The mobile phase was composed of acetonitrile:methanol:0.1% TFA in water, (40:35:25, v/v). Detection was by UV absorbance at 260 nm.
(§3) Pharmacokinetic parameters such as AUC, Cmax, tmax, oral clearance, and terminal half-life, were determined using standard noncompartmental techniques.

HIV = conditions: reported for tipranavir; cited from earlier work
[5] = Table 1; cited from earlier work
[6] = Tipranavir drug-drug interaction potential (Table 1); conditions: with tipranavir
[7] = cited from earlier work
[8] = human, in vivo; remark: listed apart in the source
Method: as §1
Plasma samples were assayed for delavirdine concentrations using a validated, sensitive and specific isocratic high performance liquid chromatographic (HPLC) method: one for the upper concentration range, and one for the lower concentration range. […] The supernatant was mixed with buffer and directly injected. Chromatographic separation was achieved using a Brownlee cyano guard column and an analytical column, DuPont Zorbax® SB CN.
as §2

[9] = system: cytochrome P450 3A (CYP3A); conditions: known property; cited from earlier work
CYP3A [10] = conditions: cited from earlier work
CYP3A [11] = conditions: delavirdine 200, 300, and 400 mg TID, HIV-1 infected patients, serial erythromycin breath tests; cited from earlier work
CYP3A [12] = conditions: Table 1; cited from earlier work
clinical [13] = type: in vivo, human
Excerpt: The drugs were then coadministered for 10 days, after which the pharmacokinetics of each were re-evaluated and compared with baseline data. […] Twelve subjects were Caucasian and two were of African descent. Ten subjects completed all aspects of the study. Pharmacokinetic analyses were based on the results obtained in these subjects. […] Ritonavir and the internal standard (IS) were extracted from human plasma by liquid-liquid extraction with an ethyl acetate mixture.

[14] = Study 2: pharmacokinetics of ritonavir co-administered with tipranavir in healthy volunteers; type: in vivo, human
Method: Both groups received their assigned dose of tipranavir continuously throughout the study period. […] The pharmacokinetics of tipranavir when coadministered with ritonavir were evaluated and compared with baseline data, while the ritonavir data were compared to historical data. The study was conducted in 19 healthy volunteers (16 males and 3 females) with a mean age of 30 years (range, 19-52 years), height of 177.1 cm (range, 162.6-190.5 cm), and weight of 76.7 kg (range, 57.3-95.0 kg). Eighteen subjects were Caucasian […]. […] Pharmacokinetic analyses were based on those subjects completing the baseline evaluation and at least one period of concomitant drug administration. […] Ritonavir and the internal standard (IS) were extracted from human plasma by liquid-liquid extraction with an ethyl acetate mixture.

[15] = human, in vivo; remark: listed apart in the source
Method: (§4) A pharmacokinetic profile was obtained under steady-state conditions following 7 days of dosing.
(§5) After elution from the SPE, a C-18AR analytical column was used to perform the chromatographic separation: the mobile phase was a gradient of methanol and 25 mM ammonium acetate. […] Retention times were approximately 1.5 minutes.
as §3

[16] = Example 4: pharmacokinetics of ritonavir oral solution with tipranavir SEDDS in healthy volunteers
Method: as §4, §5, §3

[17] = 200 mg BID with tipranavir 1250 mg BID vs ritonavir 500 mg BID alone

CL/F (clinical [2]): 468 mL/min
CLPO (oral clearance) [4]: 12.7 (6.1-23.7) L/h
effect on apparent terminal half-life ([4]; po): not significantly affected by ritonavir
SMILES: CCC[C@@]1(CCc2ccccc2)CC(O)=C([C@H](CC)c2cccc(NS(=O)(=O)c3ccc(C(F)(F)F)cn3)c2)C(=O)O1 (relative stereo) [Tipranavir, [R-(R*,R*)]-N-[3-[1-[5,6-Dihydro-4-hydroxy-2-oxo-6-(2-phenylethyl)-6-propyl-2H-pyran-3-yl]propyl]phenyl]-5-(trifluoromethyl)-2-pyridinesulfonamide]
effect on elimination half-life (t1/2) [1]: not accompanied by a prolongation of the elimination half-life
enzyme induction by tipranavir (CYP3A [3]): induces its own metabolism over a wide dosage range; also recorded: enzyme inducer
IC90 (HIV): 1 µM

SMILES: Nc1ccn([C@@H]2CS[C@H](CO)O2)c(=O)n1 [3TC]
Principal Route(s) of Elimination [5]: Excreted unchanged in urine

SMILES: Cc1cn([C@H]2C[C@H](N=[N+]=[N-])[C@@H](CO)O2)c(=O)[nH]c1=O [AZT]
Principal Route(s) of Elimination [5]: Conjugation/renal excretion
Potential for Clinically Significant Interaction [6]: Low

Potential for Clinically Significant Interaction [6]: High (and unfavorable)
SMILES: CC(C)CN(C[C@@H](O)[C@H](Cc1ccccc1)NC(=O)O[C@H]1CCOC1)S(=O)(=O)c1ccc(N)cc1 [Amprenavir]
Principal Route(s) of Elimination [5]: CYP3A
decrease of AUC by rifampin ([7]; Table 1, protease inhibitors): ~ 80%

CLPO (oral clearance) [8]: 5.18 (1.5-7.8) L/h
SMILES: CC(C)Nc1cccnc1N1CCN(C(=O)c2cc3cc(NS(C)(=O)=O)ccc3[nH]2)CC1 [Delavirdine]
inhibition of CYP3A [9]: inhibits cytochrome P450 monooxygenase (CYP3A)
inhibition of CYP3A in vitro (CYP3A [10]): non-competitively inhibit CYP3A
inhibition of CYP3A in vivo (CYP3A [11]): rapid and significant inhibition of CYP3A
delavirdine clearance with rifabutin or rifampin ([7]; coadministration of either rifabutin or rifampin): marked increase in delavirdine clearance

SMILES: O=C1Nc2ccc(Cl)cc2[C@@](C#CC2CC2)(C(F)(F)F)O1 [Efavirenz]
CYP3A induction (CYP3A [12]): possible CYP3A inducer

SMILES: CC(C)(C)NC(=O)[C@@H]1CN(Cc2cccnc2)CCN1C[C@@H](O)C[C@@H](Cc1ccccc1)C(=O)N[C@H]1c2ccccc2C[C@H]1O [Indinavir]
decrease of AUC by rifampin ([7]; Table 1, protease inhibitors): ~ 80%

SMILES: Cc1c(O)cccc1C(=O)N[C@@H](CSc1ccccc1)[C@H](O)CN1C[C@H]2CCCC[C@H]2C[C@H]1C(=O)NC(C)(C)C [Nelfinavir]
decrease of AUC by rifampin ([7]; human, in vivo): ~ 80%

SMILES: Cc1ccnc2c1NC(=O)c1cccnc1N2C1CC1 [Nevirapine]
decrease of nevirapine concentrations by rifampin ([7]; in vivo): ~ 40%

CL/F (clinical [13]; human, in vivo, po): 85 mL/min
CLPO (oral clearance) (clinical [13]; human, in vivo, po): 5.1 (3.9-7.8) L/h
Tmax (clinical [13]; human, in vivo, po): 3.0 (1.0-4.0) h
half-life (clinical [13]; human, plasma, po, 500 mg): 2.9 h
decrease in mean steady-state ritonavir concentrations (clinical [13]; ritonavir 500 mg BID with tipranavir 1350 mg BID vs alone): ~5 -fold
effect of tipranavir on blood levels of ritonavir ([14]; Examples 1 and 2): lower blood levels of ritonavir
ritonavir concentrations ([14]; co-administration of lowest tipranavir dose tested (600 mg BID)): significantly and substantially declined
effect on elimination half-life ([14]; human, in vivo): shortening of the elimination hall-life
decrease in steady-state plasma ritonavir concentrations ([14]; ritonavir 500 mg BID with tipranavir 600 or 900 mg BID vs ritonavir alone): ~4 -fold
decrease of median ritonavir AUC [16, 17]: 12 -fold
decrease of median ritonavir Cmax [16, 17]: 10 -fold
decrease of median ritonavir Cmin [16, 17]: 54 -fold
ritonavir concentrations in the presence of tipranavir ([16]; presence of tipranavir): greatly decreased
SMILES: CC(C)c1nc(CN(C)C(=O)N[C@H](C(=O)N[C@@H](Cc2ccccc2)C[C@H](O)[C@H](Cc2ccccc2)NC(=O)OCc2cncs2)C(C)C)cs1 [Ritonavir, (2S,3S,5S)-5(N-(N-((N-Methyl-N-((2-isopropyl-4-thiazoly)methyl)amino)carbonyl)-L-valinyl)amino)-2-(N-((5-thiazoly)methoxycarbonyl)amino)-1,6-diphenyl-3-hydroxhexane]
effect on apparent half-life of elimination (clinical [13]; human, in vivo): shorter apparent half-life of elimination
plasma ritonavir concentrations vs reported values (clinical [13]; ritonavir 500 mg BID alone): slightly higher than those reported in HIV-infected patients receiving ritonavir 600 mg doses twice daily
plasma ritonavir concentrations vs published values (clinical [13]; ritonavir 500 mg BID with tipranavir): lower than published values for ritonavir 300 mg doses administered twice daily to HIV-infected patients
effect on apparent elimination half-life [15]: decreased relative to ritonavir given alone

Potential for Clinically Significant Interaction [6]: High (and unfavorable)
SMILES: CC(C)(C)NC(=O)[C@@H]1C[C@@H]2CCCC[C@@H]2CN1C[C@@H](O)[C@H](Cc1ccccc1)NC(=O)[C@H](CC(N)=O)NC(=O)c1ccc2ccccc2n1 [Saquinavir]
decrease of AUC by rifampin ([7]; human, in vivo): ~ 80%

Potential for Clinically Significant Interaction [6]: Low
SMILES: O=c1[nH]cnc2c1ncn2[C@H]1CC[C@@H](CO)O1 [ddI]
Principal Route(s) of Elimination [5]: Tubular secretion
